The source of these data is patent publication US11840521B2, “Modulators of Mas-related G-protein receptor X4 and related products and methods” (Escient Pharmaceuticals, Inc., priority 2019, dated 2023).

Each structure is given as a SMILES string.

One assay deals with MRGPRX4 (Homo sapiens, UniProt Q96LA9). Description: MRGPR X4 antagonist activity, IP-One Gq HTRF assay in stably transfected HEK cells (versus agonist bilirubin, deoxycholic acid, conjugated bilirubin, urobilin, obeticholic acid or BAR502). Type of assay: cell-based. Also noted: expressed in transfected cells; host or cells: HEK cells, stably transfected. The note with it: read-out: IC50 (10 μM BAR502) nM; MRGPRX4 antagonists versus 10 μM BAR502 agonist. The protocol: HEK cells stably transfected to express human MRGPR X4 were maintained in an incubator at 37° C. with 5% CO2 and grown in DMEM media with 10% fetal bovine serum (FBS) and 1% each of sodium pyruvate, Glutamax, penicillin/streptomycin, and Geneticin. HEK cells stably transfected to express mouse MRGPR A1 were maintained in the same incubator and grown in DMEM media with 10% FBS, 1% each of sodium pyruvate, Glutamax, penicillin/streptomycin, Geneticin, and 2.2 mg/mL Hygromycin.
MRGPRX4, sequence (Q96LA9 whole entry): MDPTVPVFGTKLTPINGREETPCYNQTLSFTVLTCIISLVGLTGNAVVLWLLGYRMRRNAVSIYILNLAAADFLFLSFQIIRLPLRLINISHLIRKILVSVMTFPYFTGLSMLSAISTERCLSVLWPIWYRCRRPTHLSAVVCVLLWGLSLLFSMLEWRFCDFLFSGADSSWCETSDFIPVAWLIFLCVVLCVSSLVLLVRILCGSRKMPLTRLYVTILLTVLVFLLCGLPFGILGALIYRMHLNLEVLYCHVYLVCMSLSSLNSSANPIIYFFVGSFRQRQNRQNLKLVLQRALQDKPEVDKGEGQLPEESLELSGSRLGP
Cells were plated in a 384-well assay plate at 20,000 cells per well in 12 μL of Opti-MEM and kept in an incubator overnight. On the day of the assay, compounds solubilized at 10 mM in DMSO were added as a 10-point curve (10 uM final top concentration with 1:3 serial dilutions) using a Tecan D300E digital dispenser. […] Final concentrations of DMSO were kept consistent across the plate. Plates were incubated in the dark for 1 h at 37° C. and then for 30 minutes at room temperature. IP-1 standards and HTRF detection reagents were added according to the IP-One—Gq Kit purchased from Cisbio (part number 62IPAPEJ) and incubated in the dark for 1 h at room temperature. The plate was read on a Molecular Devices SpectraMax iD5 plate reader. The HTRF ratio was calculated from the raw data and graphed using GraphPad Prism to calculate an IC50 value for each compound.
On the technique in general: In TR-FRET formats the signal depends on donor and acceptor labels being close together.
For the molecule `O=C(O)c1cccc(COc2ccc(Cl)cc2C(F)(F)F)n1` [Compound 1-31], the IC50 was found to be 11 nM.

The assay is the same for the next values; noted with them: versus 10 μM Bilirubin agonist; HEK cells expressing human MRGPR X4; read-out: MRGPR4 Antagonist Activity.
Regarding `CC(C)(NC(=O)c1cccc(COc2ccc(C(F)(F)F)cc2Cl)c1)C(=O)O` [Compound 54-3], the IC50 was in the range of 100 to 500 nM.

For the molecule `COC1CCN(C(=O)c2cccc(COc3ccc(C(F)(F)F)cc3Cl)c2)CC1` [Compound 52-14], the IC50 was in the range of 1000 to 2500 nM. Still for that read-out and setting: the same measure for `COc1ccccc1OCc1cccc(C(=O)O)c1` [Compound 1-37]: 100 to 500 nM. For `CNC(=O)c1ccc(OCc2cccc(C(=O)O)c2)cc1` [Compound 1-152], the IC50 lay within 1000 to 2500 nM. On the same count and under the same terms, the result for `Fc1cc(OCc2cccc(-c3nnn[nH]3)c2)ccc1C(F)(F)F` [Compound 17-9] reads less than 100 nM; that for `Cc1cc(OCc2cccc(C(=O)O)c2)ccc1C#N` [Compound 1-145], 100 to 500 nM; that for `O=C(O)c1cc(COc2ccc(C(F)(F)F)cc2Cl)cc(-c2ccccc2)c1` [Compound 8-4], 500 to 1000 nM. Same read-out and setting: the result for `Cc1c(COc2ccc(Cl)cc2Cl)cccc1C(=O)O` [Compound 4-8] reads 100 to 500 nM; that for `FC(F)(F)c1ccc(OCc2cccc(-c3nnn[nH]3)c2)cc1Cl` [Compound 17-2], less than 100 nM; that for `Cc1cc(COc2ccc(OC(F)(F)F)cc2Cl)cc(C(=O)O)c1` [Compound 4-14], less than 100 nM.

In the case of `O=C(O)c1cccc(COc2ccc3sccc3c2)c1F` [Compound 4-22], the IC50 is 100 to 500 nM. In the case of `O=C(O)c1cc(COc2ccc(C(F)(F)F)cc2Cl)cc(C2CC2)c1` [Compound 11-1, 3-((2-chloro-4-(trifluoromethyl)phenoxy)methyl)-5-cyclopropylbenzoic acid], the IC50 was less than 100 nM. For `COc1ccc(COc2ccc(Cl)cc2Cl)cc1C(=O)O` [Compound 1-32], the IC50 was in the range of 1000 to 2500 nM. As to `O=C(O)c1cccc(COc2ccc(OC(F)(F)F)c(Cl)c2)c1` [Compound 1-132], the IC50 is less than 100 nM. Still for that read-out and setting: the same measure for `O=C(O)c1cccc(COc2ccccc2C(F)F)c1` [Compound 33-1, 3-((2-(difluoromethyl)phenoxy)methyl)benzoic acid]: more than 2500 nM. `O=C(O)c1cccc(COc2ccc3sccc3c2)c1` [Compound 1-134]: the IC50 is 100 to 500 nM. The same measure, in the same setting: the result for `FC(F)(F)c1ccc(OCc2cccc(-c3nnn[nH]3)n2)c(Cl)c1` [Compound 17-6] reads less than 100 nM.

Consider `CNCCNC(=O)c1cccc(COc2ccc(C(F)(F)F)cc2Cl)c1` [Compound 53-1, 3-((2-chloro-4-(trifluoromethyl)phenoxy)methyl)-N-(2-(methylamino)ethyl)benzamide], for which the IC50 lay within 500 to 1000 nM. On to `O=C(O)c1cccc(CNc2ccc(C(F)(F)F)cc2Cl)n1` [Compound 12-3], for which the IC50 was less than 100 nM. With `O=C(O)c1cccc(COc2ccc(Cl)c(Cl)c2)c1` [Compound 3-6], the IC50 was in the range of 100 to 500 nM. Turning to `O=C(O)c1cccc(COc2ccc3ccccc3c2)n1` [Compound 1-30], the IC50 was less than 100 nM. Same read-out and setting: the result for `Cc1ccc(COc2ccc(Cl)cc2Cl)cc1C(=O)O` [Compound 8-1, 5-((2,4-dichlorophenoxy)methyl)-2-methylbenzoic acid] reads more than 2500 nM; that for `C[C@@H](O)[C@H](NC(=O)c1cccc(COc2ccc(C(F)(F)F)cc2Cl)c1)C(=O)O` [Compound 54-8], 500 to 1000 nM; that for `Cc1cc(Cl)cc(Cl)c1OCc1cccc(C(=O)O)c1` [Compound 1-50], 1000 to 2500 nM.

Turning to `O=C(O)c1cccc(COc2ccc(C3CC3)cc2Cl)c1` [Compound 1-122], the IC50 fell in the range of 100 to 500 nM.

`Cc1cc(Cl)ccc1OCc1cccc(C(=O)O)c1F` [Compound 1-63]: the IC50 was less than 100 nM. The same measure, in the same setting: the result for `O=C(O)c1cccc(COc2ccc(Cl)cc2C(F)(F)F)n1` [Compound 1-31] reads less than 100 nM; that for `O=C(O)c1cccc(COc2ccc(Cl)cc2)c1` [Compound 1-21], 100 to 500 nM; that for `O=C(O)c1ccc(F)c(COc2ccc(Cl)cc2Cl)c1` [Compound 4-2], 1000 to 2500 nM. Same read-out and setting: the same measure for `O=C(O)c1cccc(COc2cccc3c2OC(F)(F)O3)c1` [Compound 1-48]: more than 2500 nM; for `O=C(NC1CCC1)c1cccc(COc2ccc(C(F)(F)F)cc2Cl)c1` [Compound 52-24]: 100 to 500 nM. The same measure, in the same setting: the result for `O=C(O)CNC(=O)c1cccc(COc2ccc(C(F)(F)F)cc2Cl)c1` [Compound 54-2] reads less than 100 nM.

Take `FC(F)(F)c1cc(Cl)ccc1OCc1cccc(-c2nnn[nH]2)c1` [Compound 17-3]: the IC50 was 100 to 500 nM. Turning to `Cc1cc(C(F)(F)F)ccc1OCc1cc(F)cc(C(=O)O)c1` [Compound 9-2], the IC50 was less than 100 nM.

`O=C(O)c1cccc(COc2ccc3ccoc3c2)c1` [Compound 1-128]: the IC50 was in the range of 500 to 1000 nM. As for `O=C(O)c1cc(F)cc(COc2ccc3ccccc3c2)c1` [Compound 9-3], the IC50 is less than 100 nM. On the same count and under the same terms, the same measure for `CCCc1cc(COc2ccc(C(F)(F)F)cc2Cl)nc(C(=O)O)c1` [Compound 39-1, 6-((2-chloro-4-(trifluoromethyl)phenoxy)methyl)-4-propylpicolinic acid]: less than 100 nM. The same measure, in the same setting: the same measure for `N#Cc1cccc(COc2ccc(C(F)(F)F)cc2Cl)c1` [Compound 17-1, 3-((2-chloro-4-(trifluoromethyl)phenoxy)methyl)benzonitrile]: 100 to 500 nM. Consider `N#Cc1cc(CCc2ccc(C(F)(F)F)cc2Cl)cc(C(=O)O)c1` [Compound 61-1, 3-(2-chloro-4-(trifluoromethyl)phenethyl)-5-cyanobenzoic acid], for which the IC50 lay in the range of 100 to 500 nM. On to `O=C(O)c1cccc(COc2cccc(C(F)(F)F)c2Cl)c1` [Compound 1-79], for which the IC50 was in the range of 100 to 500 nM. Still for that read-out and setting: the result for `CC(C)NC(=O)c1cccc(COc2ccc(C(F)(F)F)cc2Cl)c1` [Compound 52-8] reads 100 to 500 nM; that for `N#Cc1ccc(OCc2cccc(C(=O)O)c2)cc1` [Compound 1-34], more than 2500 nM. Take `Cc1ccc(OCc2cccc(C(=O)O)c2)c(C)c1` [Compound 3-7]: the IC50 was 1000 to 2500 nM. On the same count and under the same terms, the same measure for `N#Cc1cc(COc2ccc(C(F)(F)F)cc2Cl)cc(C(=O)O)c1` [Compound 32-1, 3-((2-chloro-4-(trifluoromethyl)phenoxy)methyl)-5-cyanobenzoic acid]: less than 100 nM; for `CC(Oc1ccc(C(F)(F)F)cc1Cl)c1cccc(C(=O)O)c1` (centres unmarked) [Compound 62-1, 3-(1-(2-chloro-4-(trifluoromethyl)phenoxy)ethyl)benzoic acid]: less than 100 nM. Regarding `O=C(O)c1cccc(COc2ccc(OC(F)(F)F)cc2)c1` [Compound 1-47], the IC50 is 100 to 500 nM.

Consider `Cc1ccc(OCc2cccc(C(=O)O)c2)c(Cl)c1Cl` [Compound 1-143], for which the IC50 was less than 100 nM. As for `O=C(O)c1cccc(COc2ccc(-c3ccccc3)cc2)c1` [Compound 1-81], the IC50 is more than 2500 nM.

Take `O=C(O)c1cc(F)cc(COc2ccc(OC(F)(F)F)cc2Cl)c1` [Compound 1-121]: the IC50 is 100 to 500 nM. In the case of `O=C(c1cccc(COc2ccc(C(F)(F)F)cc2Cl)c1)N1CCCC(O)C1` (centres unmarked) [Compound 52-21], the IC50 fell in the range of 500 to 1000 nM. Still for that read-out and setting: the same measure for `O=C(O)c1cccc(COc2ccccc2F)c1` [Compound 1-40]: 1000 to 2500 nM; for `O=C(O)c1cccc(COc2ccccc2C(F)(F)F)c1` [Compound 1-141]: 1000 to 2500 nM. Same read-out and setting: the same measure for `O=C(O)c1cccc(COc2ccc3c(c2)OC(F)(F)O3)c1` [Compound 1-61]: 500 to 1000 nM. Regarding `N#Cc1cc(COc2ccc(Cl)c(Cl)c2Cl)cc(C(=O)O)c1` [Compound 32-3], the IC50 was less than 100 nM. The same measure, in the same setting: the result for `COC(=O)c1cccc(COc2ccc(Cl)cc2Cl)c1` [Compound 1-4] reads more than 2500 nM; that for `COCCCNC(=O)c1cccc(COc2ccc(C(F)(F)F)cc2Cl)c1` [Compound 52-13], less than 100 nM; that for `O=C(O)c1cccc(COc2ccc(Cl)c(Cl)c2Cl)c1F` [Compound 1-124], less than 100 nM. As to `Cc1cc(F)ccc1OCc1cccc(C(=O)O)c1` [Compound 1-94], the IC50 was in the range of 1000 to 2500 nM. On the same count and under the same terms, the same measure for `COc1cc(COc2ccc(Cl)cc2Cl)cc(C(=O)O)c1` [Compound 4-5]: less than 100 nM; for `O=C(O)c1cccc(COc2cccc(C(F)(F)F)c2)c1` [Compound 1-140]: 1000 to 2500 nM. For the molecule `O=C(O)c1cccc(COc2ccc(C(F)(F)F)cc2)c1` [Compound 1-41], the IC50 is 100 to 500 nM. Still for that read-out and setting: the result for `COC(=O)c1cccc(COc2ccc(OC(F)(F)F)cc2)c1` [Compound 1-6] reads 1000 to 2500 nM. On the same count and under the same terms, the same measure for `COC(=O)c1cccc(COc2ccc(Cl)cc2C)n1` [Compound 1-13]: 100 to 500 nM.

The same assay, now with this note: versus 10 μM Bilirubin agonist; read-out: IC50 (Bilirubin agonist).
On to `O=C(O)c1cccc(COc2ccc(Cl)cc2C(F)(F)F)n1` [Compound 1-31], for which the IC50 is 10 nM. `N#Cc1cc(COc2ccc(C(F)(F)F)cc2Cl)cc(C(=O)O)c1` [Compound 32-1, 3-((2-chloro-4-(trifluoromethyl)phenoxy)methyl)-5-cyanobenzoic acid]: the IC50 was found to be 6 nM.

The same assay, now with this note: versus 20 μM deoxycholic acid; read-out: IC50 (Deoxycholic Acid agonist).
For `O=C(O)c1cccc(COc2ccc(Cl)cc2C(F)(F)F)n1` [Compound 1-31], the IC50 turned out to be 5 nM.

Regarding `N#Cc1cc(COc2ccc(C(F)(F)F)cc2Cl)cc(C(=O)O)c1` [Compound 32-1, 3-((2-chloro-4-(trifluoromethyl)phenoxy)methyl)-5-cyanobenzoic acid], the IC50 was 10 nM.

Staying with this assay, now noted: versus 20 μM obeticholic acid; read-out: IC50 (Obeticholic Acid Agonist).
Turning to `O=C(O)c1cccc(COc2ccc(Cl)cc2C(F)(F)F)n1` [Compound 1-31], the IC50 stood at 5 nM. On to `N#Cc1cc(COc2ccc(C(F)(F)F)cc2Cl)cc(C(=O)O)c1` [Compound 32-1, 3-((2-chloro-4-(trifluoromethyl)phenoxy)methyl)-5-cyanobenzoic acid], for which the IC50 was 3 nM.

The same assay, now with this note: versus 50 μM urobilin; read-out: IC50 (Urobilin Agonist).
Turning to `O=C(O)c1cccc(COc2ccc(Cl)cc2C(F)(F)F)n1` [Compound 1-31], the IC50 amounted to 7 nM. The same measure, in the same setting: the same measure for `N#Cc1cc(COc2ccc(C(F)(F)F)cc2Cl)cc(C(=O)O)c1` [Compound 32-1, 3-((2-chloro-4-(trifluoromethyl)phenoxy)methyl)-5-cyanobenzoic acid]: 8 nM.

The same assay, now with this note: versus 100 μM conjugated bilirubin; read-out: IC50 (Conjugated Bilirubin Agonist).
Consider `O=C(O)c1cccc(COc2ccc(Cl)cc2C(F)(F)F)n1` [Compound 1-31], for which the IC50 came out at 9 nM. For `N#Cc1cc(COc2ccc(C(F)(F)F)cc2Cl)cc(C(=O)O)c1` [Compound 32-1, 3-((2-chloro-4-(trifluoromethyl)phenoxy)methyl)-5-cyanobenzoic acid], the IC50 was 7 nM.
